Experimental data from ChEMBL document CHEMBL1148045, “Dactyltronic acids from the sponge Dactylospongia elegans” (J Nat Prod, 1994).
Values after ≈ are worked out from the molar mass of the structure shown.

Assays:
[1] = test system: P388; experiment: Cytotoxicity against mouse P388 cells; format: functional, cell-based
[2] = test system: A549; experiment: Cytotoxicity against human A549 cells; format: functional, cell-based

C=C1CCC[C@H]2[C@](C)(CC(=O)C3=C(O)C(OC)OC3=O)[C@@H](C)CC[C@]12C (some centres not stated) [DACTYLTRONIC ACID]
IC50 [1]: 10 µg/mL (≈ 27.6 µM) | IC50 [2]: 10 µg/mL (≈ 27.6 µM)
